In US9708305B2, “Substituted 1,2,3,4-tetrahydroisoquinoline derivatives for the treatment of hormone-dependent diseases” (UNIVERSITÉ LAVAL, priority 2013, dated 2017):
Values joined by “and” are separate entries in the source; they are usually repeats but may differ in a detail not shown here. Equal values may be shown once.

Target: T1, STS (Homo sapiens, UniProt P08842)
T1 construct: expressed in transfected cells; host or cells: HEK-293 cells stably transfected with STS (G418 selection), obtained from Dr. Van Luu-The; used as freeze-thaw homogenate
T1 sequence (P08842 22-583): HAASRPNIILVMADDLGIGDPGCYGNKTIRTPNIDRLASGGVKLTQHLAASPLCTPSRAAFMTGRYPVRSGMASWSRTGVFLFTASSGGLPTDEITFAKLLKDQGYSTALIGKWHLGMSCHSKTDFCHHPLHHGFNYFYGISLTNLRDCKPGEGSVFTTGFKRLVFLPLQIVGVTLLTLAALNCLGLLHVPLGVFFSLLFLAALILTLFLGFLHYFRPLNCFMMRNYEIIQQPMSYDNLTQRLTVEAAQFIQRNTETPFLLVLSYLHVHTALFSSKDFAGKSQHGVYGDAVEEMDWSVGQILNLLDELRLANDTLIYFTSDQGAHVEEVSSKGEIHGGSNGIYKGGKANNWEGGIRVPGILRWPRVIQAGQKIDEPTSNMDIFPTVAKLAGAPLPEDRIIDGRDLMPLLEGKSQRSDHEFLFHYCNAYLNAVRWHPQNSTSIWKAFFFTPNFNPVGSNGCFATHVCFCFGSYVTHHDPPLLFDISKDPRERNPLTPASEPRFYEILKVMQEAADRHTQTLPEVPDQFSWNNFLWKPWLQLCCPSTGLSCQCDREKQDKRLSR
Experiment: STS inhibition of libraries 1-EO to 4-EO, homogenate of STS transfected HEK-293 cells
Format: biochemical
Conditions: mean ± SEM, triplicate
Protocol: The enzymatic assay was performed using homogenate of STS transfected HEK-293 cells as the source of enzyme activity. The transformation of [^3H]-E1S into [^3H]-E1 was measured using scintillation counting of labeled E1S and E1 in the aqueous and organic phases, respectively. Newly synthesized sulfamate compounds were tested at two concentrations (0.1 μM and 1 μM). Libraries 1-EO and 2-EO were synthesized using the p- and m-benzamide spacers as 1st level of molecular diversity and the same wide variety of secondary amines as 2nd level of diversity (Table 2), which were chosen in a somewhat random fashion while including a different pattern, format and heteroatom. […] Compounds 1-EO-07, 1-EO-09 and 1-EO-10 represent a starting point for optimization, as they show more than 36% of inhibition when tested at a concentration of 0.1 μM. These compounds have relatively hydrophobic substituents compared to the rest of the library members. […] The average log P value for the rest of the library, excluding these three compounds, is 1.93.
This enzymatic assay was carried out according to a procedure previously described for the transformation of substrate [^3H]-E1S (100 μM) into [^3H]-E1 by homogenated HEK-293 cells over-expressing the enzyme activity.^56,73

Row | SMILES | STS inhibition (%) (0.1 μM) | STS inhibition (%) (1 μM) | STS inhibition (%) (1 μM, listed as 1-EO-9, 1 µM)
1 | NS(=O)(=O)Oc1ccc2c(c1)CN(C(=O)c1ccc(CN3CCOCC3)cc1)CC2 [1-EO-01] | 10.9 ± 3.5% | 50.6 ± 1.2 | –
2 | NS(=O)(=O)Oc1ccc2c(c1)CN(C(=O)c1ccc(CN3CCCCC3)cc1)CC2 [1-EO-02] | 11.5 ± 2.4% | 38.3 ± 3.6 | –
3 | NS(=O)(=O)Oc1ccc2c(c1)CN(C(=O)c1ccc(CN3CCSCC3)cc1)CC2 [1-EO-03] | 32.3 ± 1.0% | 80.2 ± 0.9 | –
4 | CN1CCN(Cc2ccc(C(=O)N3CCc4ccc(OS(N)(=O)=O)cc4C3)cc2)CC1 [1-EO-04] | 2.9 ± 0.5% | 23.3 ± 1.3 | –
5 | NS(=O)(=O)Oc1ccc2c(c1)CN(C(=O)c1ccc(CN3CCN(Cc4ccccc4)CC3)cc1)CC2 [1-EO-05] | 20.8 ± 3.7% | 75.8 ± 1.6 | –
6 | NS(=O)(=O)Oc1ccc2c(c1)CN(C(=O)c1ccc(CN3CCN(c4ncccn4)CC3)cc1)CC2 [1-EO-06] | 14.7 ± 3.6% | 41.9 ± 0.8 | –
7 | NS(=O)(=O)Oc1ccc2c(c1)CN(C(=O)c1ccc(CN3CCC(Cc4ccccc4)CC3)cc1)CC2 [1-EO-07] | – | 81.3 ± 0.5 | –
8 | NS(=O)(=O)Oc1ccc2c(c1)CN(C(=O)c1ccc(CN3CCC(N4CCCCC4)CC3)cc1)CC2 [1-EO-08] | 8.5 ± 1.2% | 53.7 ± 4.7 | –
9 | CCN(Cc1ccccc1)Cc1ccc(C(=O)N2CCc3ccc(OS(N)(=O)=O)cc3C2)cc1 [1-EO-09] | – | 83.6 ± 0.2 | 84
10 | CCCN(CCC)Cc1ccc(C(=O)N2CCc3ccc(OS(N)(=O)=O)cc3C2)cc1 [1-EO-10] | – | 84.7 ± 0.2 | –
11 | NS(=O)(=O)Oc1ccc2c(c1)CN(C(=O)c1cccc(CN3CCOCC3)c1)CC2 [2-EO-01] | 0.0 ± 4.7% | 20.9 ± 4.4 | –
12 | NS(=O)(=O)Oc1ccc2c(c1)CN(C(=O)c1cccc(CN3CCCCC3)c1)CC2 [2-EO-02] | 1.0 ± 5.1% | 11.9 ± 2.6 | –
13 | NS(=O)(=O)Oc1ccc2c(c1)CN(C(=O)c1cccc(CN3CCSCC3)c1)CC2 [2-EO-03] | 2.3 ± 0.1% | 39.6 ± 2.8 | –
14 | CN1CCN(Cc2cccc(C(=O)N3CCc4ccc(OS(N)(=O)=O)cc4C3)c2)CC1 [2-EO-04] | 0.0 ± 12.2% | 12.6 ± 2.3 | –
15 | NS(=O)(=O)Oc1ccc2c(c1)CN(C(=O)c1cccc(CN3CCN(Cc4ccccc4)CC3)c1)CC2 [2-EO-05] | 0.0 ± 3.1% | 23.7 ± 0.6 | –
16 | NS(=O)(=O)Oc1ccc2c(c1)CN(C(=O)c1cccc(CN3CCN(c4ncccn4)CC3)c1)CC2 [2-EO-06] | 1.6 ± 1.6% | 24.4 ± 0.4 | –
17 | NS(=O)(=O)Oc1ccc2c(c1)CN(C(=O)c1cccc(CN3CCC(Cc4ccccc4)CC3)c1)CC2 [2-EO-07] | 1.4 ± 0.6% | 41.9 ± 2.7 | –
18 | NS(=O)(=O)Oc1ccc2c(c1)CN(C(=O)c1cccc(CN3CCC(N4CCCCC4)CC3)c1)CC2 [2-EO-08] | 0.0 ± 2.4% | 8.0 ± 1.1 | –
19 | CCN(Cc1ccccc1)Cc1cccc(C(=O)N2CCc3ccc(OS(N)(=O)=O)cc3C2)c1 [2-EO-09] | 17% and 17.3 ± 2.5% | 69.0 ± 0.0 | –
20 | CCCN(CCC)Cc1cccc(C(=O)N2CCc3ccc(OS(N)(=O)=O)cc3C2)c1 [2-EO-10] | 8.3 ± 0.0% | 54.8 ± 1.2 | –
21 | CCCN(Cc1ccccc1)Cc1ccc(C(=O)N2CCc3ccc(OS(N)(=O)=O)cc3C2)cc1 [3-EO-01] | 64.8 ± 3.8% | 94.3 ± 0.3 | –
22 | NS(=O)(=O)Oc1ccc2c(c1)CN(C(=O)c1ccc(CN(CCO)Cc3ccccc3)cc1)CC2 [3-EO-02] | 27.9 ± 2.6% | 78.0 ± 1.1 | –
23 | NS(=O)(=O)Oc1ccc2c(c1)CN(C(=O)c1ccc(CN(CCCO)Cc3ccccc3)cc1)CC2 [3-EO-03] | 5.7 ± 4.4% | 64.3 ± 1.6 | –

Row | SMILES | STS inhibition (%) (0.1 μM) | STS inhibition (%) (1 μM) | STS inhibition (%) (1 μM, listed as 1-EO-9, 1 µM)
24 | CN(C)CCN(Cc1ccccc1)Cc1ccc(C(=O)N2CCc3ccc(OS(N)(=O)=O)cc3C2)cc1 [3-EO-04] | 13.9 ± 4.8% | 57.8 ± 3.4 | –
25 | CN(C)CCCN(Cc1ccccc1)Cc1ccc(C(=O)N2CCc3ccc(OS(N)(=O)=O)cc3C2)cc1 [3-EO-05] | 16.2 ± 4.6% | 61.6 ± 4.9 | –
26 | CN(CCN1CCCCC1)Cc1ccc(C(=O)N2CCc3ccc(OS(N)(=O)=O)cc3C2)cc1 [3-EO-06] | 0.3 ± 1.7% | 26.8 ± 13.5 | –
27 | CN(CCCN1CCCCC1)Cc1ccc(C(=O)N2CCc3ccc(OS(N)(=O)=O)cc3C2)cc1 [3-EO-07] | 17.4 ± 12.3% | 40.7 ± 8.6 | –
28 | CN(C)CCN(CCN(C)C)Cc1ccc(C(=O)N2CCc3ccc(OS(N)(=O)=O)cc3C2)cc1 [3-EO-08] | 3.8 ± 9.6% | 15.9 ± 21.5 | –
29 | CC(C)CCN(CCC(C)C)Cc1ccc(C(=O)N2CCc3ccc(OS(N)(=O)=O)cc3C2)cc1 [3-EO-09] | 47.0 ± 13.0% | 90.8 ± 1.7 | –
30 | NS(=O)(=O)Oc1ccc2c(c1)CN(C(=O)c1ccc(CN3CCc4ccccc4C3)cc1)CC2 [3-EO-10] | 56.0 ± 7.2% | 83.0 ± 11.9 | –
31 | NS(=O)(=O)Oc1ccc2c(c1)CN(C(=O)c1ccc(CN(Cc3ccccc3)Cc3ccco3)cc1)CC2 [3-EO-11] | 91% and 90.8 ± 2.6% | 98.2 ± 0.4 | –
32 | CCN(Cc1ccc(C(=O)N2CCc3ccc(OS(N)(=O)=O)cc3C2)cc1)Cc1cccc(Br)c1 [3-EO-12] | 80% and 80.2 ± 8.0% | 97.2 ± 0.6 | –
33 | CCN(Cc1ccc(Br)cc1)Cc1ccc(C(=O)N2CCc3ccc(OS(N)(=O)=O)cc3C2)cc1 [3-EO-13] | 78% and 78.2 ± 1.7% | 95.9 ± 0.6 | –
34 | CCN(Cc1ccc(C(=O)N2CCc3ccc(OS(N)(=O)=O)cc3C2)cc1)Cc1ccccn1 [3-EO-14] | 42.5 ± 3.5% | 87.7 ± 0.7 | –
35 | CCN(Cc1ccc(C(=O)N2CCc3ccc(OS(N)(=O)=O)cc3C2)cc1)Cc1cccnc1 [3-EO-15] | 35.7 ± 4.3% | 85.2 ± 1.7 | –
36 | CCN(Cc1ccncc1)Cc1ccc(C(=O)N2CCc3ccc(OS(N)(=O)=O)cc3C2)cc1 [3-EO-16] | 47.0 ± 1.8% | 86.6 ± 1.8 | –
37 | CCN(Cc1ccc(F)cc1)Cc1ccc(C(=O)N2CCc3ccc(OS(N)(=O)=O)cc3C2)cc1 [3-EO-17] | 69.1 ± 1.9% | 91.2 ± 2.7 | –
38 | CCCN(Cc1ccccc1)Cc1cccc(C(=O)N2CCc3ccc(OS(N)(=O)=O)cc3C2)c1 [4-EO-01] | 23.1 ± 7.5% | 67.4 ± 10.9 | –
39 | NS(=O)(=O)Oc1ccc2c(c1)CN(C(=O)c1cccc(CN(CCO)Cc3ccccc3)c1)CC2 [4-EO-02] | 26.7 ± 7.2% | 32.4 ± 6.3 | –
40 | NS(=O)(=O)Oc1ccc2c(c1)CN(C(=O)c1cccc(CN(CCCO)Cc3ccccc3)c1)CC2 [4-EO-03] | 25.8 ± 3.9% | 37.3 ± 7.0 | –
41 | CN(C)CCN(Cc1ccccc1)Cc1cccc(C(=O)N2CCc3ccc(OS(N)(=O)=O)cc3C2)c1 [4-EO-04] | 0.0 ± 0.0% | 28.6 ± 2.2 | –
42 | CN(C)CCCN(Cc1ccccc1)Cc1cccc(C(=O)N2CCc3ccc(OS(N)(=O)=O)cc3C2)c1 [4-EO-05] | 23.8 ± 4.1% | 26.0 ± 8.5 | –
43 | CN(CCN1CCCCC1)Cc1cccc(C(=O)N2CCc3ccc(OS(N)(=O)=O)cc3C2)c1 [4-EO-06] | 24.5 ± 7.4% | 30.8 ± 6.4 | –
44 | CN(CCCN1CCCCC1)Cc1cccc(C(=O)N2CCc3ccc(OS(N)(=O)=O)cc3C2)c1 [4-EO-07] | 24.1 ± 0.4% | 30.6 ± 6.9 | –
45 | CN(C)CCN(CCN(C)C)Cc1cccc(C(=O)N2CCc3ccc(OS(N)(=O)=O)cc3C2)c1 [4-EO-08] | 0.0 ± 0.0% | 17.1 ± 7.6 | –
46 | CC(C)CCN(CCC(C)C)Cc1cccc(C(=O)N2CCc3ccc(OS(N)(=O)=O)cc3C2)c1 [4-EO-09] | 32.3 ± 2.9% | – | –
